In article PMC11882969 (Nature Communications, 2025):
Where “and” joins values, the source holds several entries; their conditions need not be identical. Equal entries are not always repeated.

Legend:
CB1 (rCB1) = CB1 (rCB1) (Rattus norvegicus, UniProt P20272); experiment: Radioligand competition binding, [3H]-CP-55,940, rat brain membranes
hCB1 = hCB1 (Homo sapiens, UniProt P21554); experiment: bioSensAll ebBRET signaling profiling, hCB1; type: cell-based; parameters: host or cells: HEK293SL cells, transient PEI transfection; details: for Gi1 hCB1 response: Gi1 biosensor; for Gi1 hCB1 / GoB hCB1: single replicate values, FigS6a
hCB1, sequence (P21554 whole entry): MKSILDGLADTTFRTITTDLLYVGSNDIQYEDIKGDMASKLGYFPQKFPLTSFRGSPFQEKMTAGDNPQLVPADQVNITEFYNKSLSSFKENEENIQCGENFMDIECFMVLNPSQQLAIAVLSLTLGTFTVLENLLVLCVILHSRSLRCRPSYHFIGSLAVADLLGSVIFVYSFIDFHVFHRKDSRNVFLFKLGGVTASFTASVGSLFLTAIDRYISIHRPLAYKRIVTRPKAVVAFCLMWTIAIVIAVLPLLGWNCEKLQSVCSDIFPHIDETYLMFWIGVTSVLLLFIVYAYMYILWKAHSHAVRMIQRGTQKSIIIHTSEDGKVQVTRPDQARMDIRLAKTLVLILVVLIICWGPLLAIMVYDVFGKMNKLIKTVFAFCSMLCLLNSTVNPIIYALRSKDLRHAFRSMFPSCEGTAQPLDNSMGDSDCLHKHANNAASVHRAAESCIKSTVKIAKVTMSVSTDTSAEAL

CB1 (rCB1), sequence (P20272 whole entry): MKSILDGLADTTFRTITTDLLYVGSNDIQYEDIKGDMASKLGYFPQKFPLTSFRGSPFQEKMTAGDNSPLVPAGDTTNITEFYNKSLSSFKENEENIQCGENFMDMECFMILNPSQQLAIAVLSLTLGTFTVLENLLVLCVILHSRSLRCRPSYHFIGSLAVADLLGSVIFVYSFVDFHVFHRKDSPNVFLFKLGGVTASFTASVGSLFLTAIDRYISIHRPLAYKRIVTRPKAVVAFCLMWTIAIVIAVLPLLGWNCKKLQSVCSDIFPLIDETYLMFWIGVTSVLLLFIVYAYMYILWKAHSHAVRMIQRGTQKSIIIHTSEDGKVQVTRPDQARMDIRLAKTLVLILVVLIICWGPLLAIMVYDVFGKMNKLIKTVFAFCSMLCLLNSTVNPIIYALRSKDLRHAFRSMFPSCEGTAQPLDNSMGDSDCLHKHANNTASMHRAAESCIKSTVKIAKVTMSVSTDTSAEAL

Q: How did the “pKi [95% CI]” value (CB1 (rCB1); rCB1) turn out when `Cc1cc(C(=O)N(C)C(c2ccccc2)c2ccco2)nn1-c1cccc(C(F)(F)F)c1` (centres unmarked) [‘1082] was run?
A: 6.1 [5.8 – 6.3]

Q: And the Ki (CB1 (rCB1); read-out: Ki [95% CI], rCB1, [3H]-CP-55,940)?
A: 850 nM

Q: And the “Gi1 hCB1 response” value (hCB1; Log [Compound] (M) -4.22186)?
A: -35.0608

Q: And the “Gi1 hCB1 response” value (hCB1; Log [Compound] (M) -4.63927)?
A: -33.606

Q: What about the “Gi1 hCB1 response” value (hCB1; Log [Compound] (M) -5.05788) of the same compound?
A: 18.2518

Q: What about the “Gi1 hCB1 response” value (hCB1; Log [Compound] (M) -5.47381) of the same compound?
A: -3.66

Q: What about the “Gi1 hCB1 response” value (hCB1; Log [Compound] (M) -5.89285) of the same compound?
A: 5.159

Q: And the “Gi1 hCB1 response” value (hCB1; Log [Compound] (M) -6.31878)?
A: -15.9695

Q: What about the “Gi1 hCB1 response” value (hCB1; Log [Compound] (M) -6.72585) of the same compound?
A: 12.7459

Q: What about the “Gi1 hCB1 response” value (hCB1; Log [Compound] (M) -7.14267) of the same compound?
A: 12.0521

Q: What about the “Gi1 hCB1 response” value (hCB1; Log [Compound] (M) -7.55284) of the same compound?
A: 14.8945

Q: And the “Gi1 hCB1 response” value (hCB1; Log [Compound] (M) -8)?
A: -25.6382

Q: What about the “Gi1 hCB1 response” value (hCB1; Log [Compound] (M) -8.22186) of the same compound?
A: 0.1228

Q: What about the “Gi1 hCB1 response” value (hCB1; Log [Compound] (M) -8.39794) of the same compound?
A: -3.727

Q: And the “Gi1 hCB1 response” value (hCB1; Log [Compound] (M) -8.68787)?
A: -1.824

Q: What about the “Gi1 hCB1 response” value (hCB1; Log [Compound] (M) -9.15521) of the same compound?
A: 3.279

Q: And the “Gi1 hCB1 response” value (hCB1; Log [Compound] (M) -9.61989)?
A: -3.167

Q: What about the “Gi1 hCB1 response” value (hCB1; Log [Compound] (M) -10.0969) of the same compound?
A: -2.16

Q: What about the “Gi1 hCB1 response” value (hCB1; Log [Compound] (M) -10.5529) of the same compound?
A: 5.92

Q: What about the “Gi1 hCB1 response” value (hCB1; Log [Compound] (M) -11.0177) of the same compound?
A: -6.256

Q: And the “Gi1 hCB1 response” value (hCB1; Log [Compound] (M) -11.4949)?
A: -0.9291

Q: What about the “Gi1 hCB1 response” value (hCB1; Log [Compound] (M) -11.9208) of the same compound?
A: -13.4627

Q: And the “Gi1 hCB1 response” value (hCB1; Log [Compound] (M) -12.3979)?
A: -16.5961

Q: What about the “Gi1 hCB1 response” value (hCB1; Log [Compound] (M) -12.8861) of the same compound?
A: 7.553

Q: What about the “Gi1 hCB1 response” value (hCB1; Log [Compound] (M) -13, individual replicate values) of the same compound?
A: -19.5729 and -62.4781

Q: And the “Gi1 hCB1” value (hCB1; Log [Compound] (M) -4.22186)?
A: -9.361

Q: What about the “GoB hCB1” value (hCB1; Log [Compound] (M) -4.22186) of the same compound?
A: -31.4993

Q: And the “Gi1 hCB1” value (hCB1; Log [Compound] (M) -4.63927)?
A: -10.6872

Q: What about the “GoB hCB1” value (hCB1; Log [Compound] (M) -4.63927) of the same compound?
A: -34.2867

Q: What about the “Gi1 hCB1” value (hCB1; Log [Compound] (M) -5.05788) of the same compound?
A: -11.9051

Q: What about the “GoB hCB1” value (hCB1; Log [Compound] (M) -5.05788) of the same compound?
A: -28.1184

Q: And the “Gi1 hCB1” value (hCB1; Log [Compound] (M) -5.47381)?
A: -11.4426

Q: And the “GoB hCB1” value (hCB1; Log [Compound] (M) -5.47381)?
A: -23.1191

Q: What about the “Gi1 hCB1” value (hCB1; Log [Compound] (M) -5.89285) of the same compound?
A: -8.945

Q: And the “GoB hCB1” value (hCB1; Log [Compound] (M) -5.89285)?
A: -20.2417

Q: What about the “Gi1 hCB1” value (hCB1; Log [Compound] (M) -6.31878) of the same compound?
A: -6.247

Q: What about the “GoB hCB1” value (hCB1; Log [Compound] (M) -6.31878) of the same compound?
A: -13.1203

Q: What about the “Gi1 hCB1” value (hCB1; Log [Compound] (M) -6.72585) of the same compound?
A: -1.113

Q: What about the “GoB hCB1” value (hCB1; Log [Compound] (M) -6.72585) of the same compound?
A: -7.186

Q: What about the “Gi1 hCB1” value (hCB1; Log [Compound] (M) -7.14267) of the same compound?
A: -0.5276

Q: What about the “GoB hCB1” value (hCB1; Log [Compound] (M) -7.14267) of the same compound?
A: -1.323

Q: And the “Gi1 hCB1” value (hCB1; Log [Compound] (M) -7.55284)?
A: 1.23

Q: What about the “GoB hCB1” value (hCB1; Log [Compound] (M) -7.55284) of the same compound?
A: 0.2953

Q: What about the “Gi1 hCB1” value (hCB1; Log [Compound] (M) -8) of the same compound?
A: 1.677

Q: What about the “GoB hCB1” value (hCB1; Log [Compound] (M) -8) of the same compound?
A: -4.362

Q: What about the “Gi1 hCB1” value (hCB1; Log [Compound] (M) -8.22186) of the same compound?
A: 1.6461

Q: And the “GoB hCB1” value (hCB1; Log [Compound] (M) -8.22186)?
A: -2.654

Q: What about the “Gi1 hCB1” value (hCB1; Log [Compound] (M) -8.39794) of the same compound?
A: 0.5515

Q: What about the “GoB hCB1” value (hCB1; Log [Compound] (M) -8.39794) of the same compound?
A: -2.906

Q: What about the “Gi1 hCB1” value (hCB1; Log [Compound] (M) -8.68787) of the same compound?
A: 1.245

Q: And the “GoB hCB1” value (hCB1; Log [Compound] (M) -8.68787)?
A: -4.668

Q: And the “Gi1 hCB1” value (hCB1; Log [Compound] (M) -9.15521)?
A: 1.045

Q: And the “GoB hCB1” value (hCB1; Log [Compound] (M) -9.15521)?
A: -5.747

Q: What about the “Gi1 hCB1” value (hCB1; Log [Compound] (M) -9.61989) of the same compound?
A: -0.04972

Q: And the “GoB hCB1” value (hCB1; Log [Compound] (M) -9.61989)?
A: -2.816

Q: What about the “Gi1 hCB1” value (hCB1; Log [Compound] (M) -10.0969) of the same compound?
A: 2.864

Q: And the “GoB hCB1” value (hCB1; Log [Compound] (M) -10.0969)?
A: -1.485

Q: What about the “Gi1 hCB1” value (hCB1; Log [Compound] (M) -10.5529) of the same compound?
A: 1.384

Q: And the “GoB hCB1” value (hCB1; Log [Compound] (M) -10.5529)?
A: -2.978

Q: What about the “Gi1 hCB1” value (hCB1; Log [Compound] (M) -11.0177) of the same compound?
A: -0.3581

Q: What about the “GoB hCB1” value (hCB1; Log [Compound] (M) -11.0177) of the same compound?
A: 1.41

Q: What about the “Gi1 hCB1” value (hCB1; Log [Compound] (M) -11.4949) of the same compound?
A: 1.415

Q: What about the “GoB hCB1” value (hCB1; Log [Compound] (M) -11.4949) of the same compound?
A: -0.7478

Q: And the “Gi1 hCB1” value (hCB1; Log [Compound] (M) -11.9208)?
A: 2.802

Q: What about the “GoB hCB1” value (hCB1; Log [Compound] (M) -11.9208) of the same compound?
A: 0.3312

Q: And the “Gi1 hCB1” value (hCB1; Log [Compound] (M) -12.3979)?
A: 0.1044

Q: And the “GoB hCB1” value (hCB1; Log [Compound] (M) -12.3979)?
A: -0.9456

Q: And the “Gi1 hCB1” value (hCB1; Log [Compound] (M) -12.8861)?
A: -0.6818

Q: What about the “GoB hCB1” value (hCB1; Log [Compound] (M) -12.8861) of the same compound?
A: 1.626

Q: And the “Gi1 hCB1” value (hCB1; Log [Compound] (M) -13)?
A: 2.001 and 0.07361

Q: And the “GoB hCB1” value (hCB1; Log [Compound] (M) -13)?
A: 1.176 and -0.1363
